{"source": "patent US20130231307A1", "about": "“NOVEL ANTIVIRAL ACYCLIC NUCLEOSIDE PHOSPHONATES” (CENTRE NATIONAL DE LA RECHERCHE SCIENTIFIQUE, priority 2010, published 2013)", "key": {"UMP-CMP kinase (hUCK)": {"biological_target": "T1, UMP-CMP kinase (hUCK) (Homo sapiens, UniProt P30085)", "T1 sequence (P30085 1-196)": "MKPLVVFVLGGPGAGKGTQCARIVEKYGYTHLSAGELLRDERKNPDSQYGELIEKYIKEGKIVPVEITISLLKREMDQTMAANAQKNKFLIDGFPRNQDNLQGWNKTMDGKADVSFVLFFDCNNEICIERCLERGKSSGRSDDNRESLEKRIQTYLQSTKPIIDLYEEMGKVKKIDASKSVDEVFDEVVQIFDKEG", "details": "cited from earlier work"}, "DNA viruses": {"system": "DNA viruses", "type": "cell-based"}, "[1]": {"details": "in vivo; cited from earlier work"}, "[2]": {"system": "thymidine kinase-deficient VZV strain 07/1"}, "[3]": {"system": "herpes simplex virus type 1 (HSV-1) (KOS)"}, "[4]": {"system": "HSV-1 TK^− (KOS acyclovir resistant, ACV)"}}, "note": "Like-named read-outs stand apart in the source and are kept apart here.", "data": [{"smiles": "Nc1ccn(C[C@@H](CO)OCP(=O)(O)O)c(=O)n1", "note": "[cidofovir]", "values": [{"measurement": "substrate for hUCK", "setting": "UMP-CMP kinase (hUCK)", "value": "not a substrate for hUCK"}]}, {"smiles": "CC(C)(C)C(=O)OCOP(=O)(C/C=C\\Cn1cc(Br)c(=O)[nH]c1=O)OCOC(=O)C(C)(C)C", "note": "[Ie2, (Z)—N^1-(4′-bis(POM)-phosphinyl-2′-butenyl)-5-bromo-uracil]", "values": [{"measurement": "antiviral activity, [Z] versus corresponding [E] isomers", "setting": "DNA viruses", "value": "clearly less, or not antivirally active"}]}, {"smiles": "CC(C)(C)C(=O)OCOP(=O)(C/C=C\\Cn1ccc(=O)[nH]c1=O)OCOC(=O)C(C)(C)C", "note": "[Ia2]", "values": [{"measurement": "antiviral activity, [Z] versus corresponding [E] isomers", "setting": "DNA viruses; HEL cell cultures", "value": "clearly less, or not antivirally active"}]}, {"smiles": "Nc1ncnc2c1ncn2CCOCP(=O)(O)OP(=O)(O)OP(=O)(O)O", "note": "[PMEA-PP]", "values": [{"measurement": "half-life in the body", "setting": "[1]", "value": "> 15", "unit": "H"}]}, {"smiles": "CC(C)(C)C(=O)OCOP(=O)(C/C=C/Cn1cc(Br)c(=O)[nH]c1=O)OCOC(=O)C(C)(C)C", "note": "[Ie1, (E)-N^1-(4′-bis(POM)-phosphinyl-2′-butenyl)-5-bromo-uracil]", "values": [{"measurement": "inhibitory activity against HSV-2", "setting": "HSV-2 (G)", "value": "most inhibitory"}, {"measurement": "antiviral activity against mutant TK-deficient VZV TK", "setting": "[2]", "value": "pronounced antiviral activity"}, {"measurement": "inhibitory activity against HSV-1", "setting": "[3]", "value": "most inhibitory"}, {"measurement": "inhibitory activity against VZV", "setting": "VZV strain OKA", "value": "most inhibitory"}, {"measurement": "antiviral activity against mutant TK-deficient HSV-1 TK^−", "setting": "[4]", "value": "pronounced antiviral activity"}]}]}
